Test results reported in patent publication US8372991B2, “Trisubstituted thiophenes that modulate intracellular calcium” (Calcimedica, Inc., priority 2008, dated 2013).

Test system: JR251 or RBL cells
Test: Store-operated calcium entry IC50 in either JR251 or RBL cells
Format: cell-based
Method: The day prior to performing the assay Orai1/STIM1 stable cells were plated in 50 μL of complete medium at 90-95% confluence in a 384 well plate. Cells were grown at 37° C./6% CO2 overnight. On the day of the assay, 1.5 μM fluo-4-AM (Invitrogen) in complete medium was added to the cells, which were then incubated for 1 hour at RT. Cells were washed once in Ca^2+-free HBSS (Hank's buffered saline solution) and 35 μl of Ca^2+-free HBSS was added to each well. Test compounds were added to wells in a 10 μL Ca^2+-free HBSS solution, prepared at 4.5× the desired final concentration, and incubated for 30 minutes at RT. The initial baseline fluorescence signal was then measured with a FLIPR^384 (Molecular Devices) plate reader. Calcium entry was initiated by adding 5 μl of 10× CaCl2 (10 mM) in HBSS, and changes in cellular fluorescence were measured with the FLIPR^384 plate reader. In each well, the magnitude of the fluorescence signal as a result of calcium entry into the cell was determined by calculating the difference between the peak fluorescence signal measured after calcium addition and the initial baseline fluorescence signal (designated Peak-Basal). IC50 values were typically calculated as the concentration that inhibited 50% of the Peak-Basal signal (Table A).
The day prior to performing the assay, RBL-2H3 cells are plated in 50 μL of complete medium in a 384 well plate. Cells are grown at 37° C./6% CO2 overnight and grow to 50-60% confluence by the next day. On the assay day, 1.5 μM Fluo-4-AM dye (Invitrogen) in complete medium is added and incubated for 1 hour at RT. Cells are washed twice in Ca^2+-free HBSS buffer and 35 μL Ca^2+-free HBSS buffer is added to each well. 10 μL of a test compound prepared in a Ca^2+-free HBSS solution at 4.5× of the desired concentration is added to a well and incubated for 5 minutes at RT. 10 μL of thapsigargin prepared in a Ca^2+-free HBSS solution at 5.5× of the desired concentration (5.5 uM) is added to each well and incubated for an additional 25 minutes. The initial baseline fluorescence signal is measured with a FLIPR^384 (Molecular Devices) plate reader. 5 μL of 12× calcium in HBSS (12 mM) is added and changes in cellular fluorescence are measured with the FLIPR^384 plate reader. In each well, the change in the fluorescent signal as a function of time due to calcium entry into the cell is determined by calculating the difference between the fluorescent signal measured 7 seconds after calcium addition and the initial baseline fluorescence signal at time zero (t=0). This parameter is designated Upslope. The IC50 value is calculated as the concentration at which 50% of the Upslope is inhibited.

Question: `O=C(Nc1scc(-c2c[nH]c3ccccc23)c1C(=O)O)c1cccc(F)c1` [2-(3-fluorobenzamido)-4-(1H-indol-3-yl)thiophene-3-carboxylic acid] was tested. Which IC50 did it give?
Answer: < 10 µM

Question: With `Cc1nc(N2CCCCC2)ncc1-c1csc(NC(=O)c2cccc(F)c2)c1C(=O)O` [2-(3-fluorobenzamido)-4-(4-methyl-2-(piperidin-1-yl)pyrimidin-5-yl)thiophene-3-carboxylic acid] as the compound, how does the IC50 read?
Answer: < 10 µM

Question: `Cc1csc(-c2csc(NC(=O)c3cccc(F)c3)c2C(=O)O)n1` [2-(3-fluorobenzamido)-4-(4-methylthiazol-2-yl)thiophene-3-carboxylic acid] was tested. Which IC50 did it give?
Answer: < 10 µM

Question: `COc1ccc(-c2csc(NC(=O)c3cccc(F)c3)c2C(=O)O)cn1` [2-(3-fluorobenzamido)-4-(6-methoxypyridin-3-yl)thiophene-3-carboxylic acid] was tested. Which IC50 did it give?
Answer: < 10 µM

Question: How did the IC50 turn out when `O=C(Nc1scc(-c2cnccn2)c1C(=O)O)c1cccc(F)c1` [2-(3-fluorobenzamido)-4-(pyrazin-2-yl)thiophene-3-carboxylic acid] was run?
Answer: < 10 µM

Question: For `O=C(Nc1scc(-c2ncco2)c1C(=O)O)c1ccc(F)cc1` [2-(4-fluorobenzamido)-4-(oxazol-2-yl)thiophene-3-carboxylic acid], which IC50 is on record?
Answer: < 10 µM

Question: For `Cc1nc(N2CCCCC2)ncc1-c1csc(NC(=O)c2snnc2C)c1C(=O)O` [2-(4-methyl-1,2,3-thiadiazole-5-carboxamido)-4-(4-methyl-2-(piperidin-1-yl)pyrimidin-5-yl)thiophene-3-carboxylic acid], which IC50 is on record?
Answer: < 10 µM

Question: `Cc1nnsc1C(=O)Nc1scc(-c2cnccn2)c1C(=O)O` [2-(4-methyl-1,2,3-thiadiazole-5-carboxamido)-4-(pyrazin-2-yl)thiophene-3-carboxylic acid] was tested. Which IC50 did it give?
Answer: < 10 µM

Question: Which IC50 does the source give for `Cc1cc(-c2csc(NC(=O)c3cnn(C)c3Cl)c2C(=O)O)n(C)n1` [2-(5-chloro-1-methyl-1H-pyrazole-4-carboxamido)-4-(1,3-dimethyl-1H-pyrazol-5-yl)thiophene-3-carboxylic acid] here?
Answer: < 10 µM

Question: With `Cn1ncc(C(=O)Nc2scc(-c3cnn(-c4ccc(Cl)cc4)c3)c2C(=O)O)c1Cl` [2-(5-chloro-1-methyl-1H-pyrazole-4-carboxamido)-4-(1-(4-chlorophenyl)-1H-pyrazol-4-yl)thiophene-3-carboxylic acid] as the compound, how does the IC50 read?
Answer: < 10 µM

Question: `Cc1nc(N2CCCCC2)ncc1-c1csc(NC(=O)c2cnn(C)c2Cl)c1C(=O)O` [2-(5-chloro-1-methyl-1H-pyrazole-4-carboxamido)-4-(4-methyl-2-(piperidin-1-yl)pyrimidin-5-yl)thiophene-3-carboxylic acid] was tested. Which IC50 did it give?
Answer: < 10 µM

Question: `Cc1ccc(-c2csc(NC(=O)c3nc4ccccc4o3)c2C(=O)O)c2ccccc12` [2-(benzo[d]oxazole-2-carboxamido)-4-(4-methylnaphthalen-1-yl)thiophene-3-carboxylic acid] was tested. Which IC50 did it give?
Answer: < 10 µM

Question: For `O=C(Nc1scc(-c2ccc3ccccc3c2)c1C(=O)O)c1nc2ccccc2o1` [2-(benzo[d]oxazole-2-carboxamido)-4-(naphthalen-2-yl)thiophene-3-carboxylic acid], which IC50 is on record?
Answer: < 10 µM

Question: Which IC50 does the source give for `O=C(Nc1scc(-c2nc3ccccc3n2C(F)F)c1C(=O)O)c1cc2ccccc2o1` [2-(benzofuran-2-carboxamido)-4-(1-(difluoromethyl)-1H-benzo[d]imidazol-2-yl)thiophene-3-carboxylic acid] here?
Answer: < 10 µM

Question: Which IC50 does the source give for `Cn1ccc2cc(-c3csc(NC(=O)c4cc5ccccc5o4)c3C(=O)O)ccc21` [2-(benzofuran-2-carboxamido)-4-(1-methyl-1H-indol-5-yl)thiophene-3-carboxylic acid] here?
Answer: < 10 µM

Question: Which IC50 does the source give for `Cn1nc(C(F)(F)F)cc1-c1csc(NC(=O)c2cc3ccccc3o2)c1C(=O)O` [2-(benzofuran-2-carboxamido)-4-(1-methyl-3-(trifluoromethyl)-1H-pyrazol-5-yl)thiophene-3-carboxylic acid] here?
Answer: < 10 µM

Question: Which IC50 does the source give for `O=C(Nc1scc(-c2c[nH]c3ccccc23)c1C(=O)O)c1cc2ccccc2o1` [2-(benzofuran-2-carboxamido)-4-(1H-indol-3-yl)thiophene-3-carboxylic acid] here?
Answer: < 10 µM

Question: For `O=C(Nc1scc(-c2cnc3[nH]ccc3c2)c1C(=O)O)c1cc2ccccc2o1` [2-(benzofuran-2-carboxamido)-4-(1H-pyrrolo[2,3-b]pyridin-5-yl)thiophene-3-carboxylic acid], which IC50 is on record?
Answer: < 10 µM

Question: How did the IC50 turn out when `Cc1nc(C)c(-c2csc(NC(=O)c3cc4ccccc4o3)c2C(=O)O)s1` [2-(benzofuran-2-carboxamido)-4-(2,4-dimethylthiazol-5-yl)thiophene-3-carboxylic acid] was run?
Answer: < 10 µM

Question: For `O=C(Nc1scc(-c2ccc(F)nc2F)c1C(=O)O)c1cc2ccccc2o1` [2-(benzofuran-2-carboxamido)-4-(2,6-difluoropyridin-3-yl)thiophene-3-carboxylic acid], which IC50 is on record?
Answer: < 10 µM

Question: How did the IC50 turn out when `O=C(Nc1scc(-c2cnc(C(F)(F)F)nc2)c1C(=O)O)c1cc2ccccc2o1` [2-(benzofuran-2-carboxamido)-4-(2-(trifluoromethyl)pyrimidin-5-yl)thiophene-3-carboxylic acid] was run?
Answer: < 10 µM

Question: Which IC50 does the source give for `O=C(Nc1scc(-c2ccnc(F)c2)c1C(=O)O)c1cc2ccccc2o1` [2-(benzofuran-2-carboxamido)-4-(2-fluoropyridin-4-yl)thiophene-3-carboxylic acid] here?
Answer: < 10 µM

Question: For `Cc1ccc(-c2csc(NC(=O)c3cc4ccccc4o3)c2C(=O)O)c2ccccc12` [2-(benzofuran-2-carboxamido)-4-(4-methylnaphthalen-1-yl)thiophene-3-carboxylic acid], which IC50 is on record?
Answer: < 10 µM

Question: Which IC50 does the source give for `Cc1csc(-c2csc(NC(=O)c3cc4ccccc4o3)c2C(=O)O)n1` [2-(benzofuran-2-carboxamido)-4-(4-methylthiazol-2-yl)thiophene-3-carboxylic acid] here?
Answer: < 10 µM

Question: `CCOc1ccc(-c2csc(NC(=O)c3cc4ccccc4o3)c2C(=O)O)cn1` [2-(benzofuran-2-carboxamido)-4-(6-ethoxypyridin-3-yl)thiophene-3-carboxylic acid] was tested. Which IC50 did it give?
Answer: < 10 µM

Question: With `O=C(Nc1scc(-c2ccc(F)nc2)c1C(=O)O)c1cc2ccccc2o1` [2-(benzofuran-2-carboxamido)-4-(6-fluoropyridin-3-yl)thiophene-3-carboxylic acid] as the compound, how does the IC50 read?
Answer: < 10 µM

Question: For `COc1ccc(-c2csc(NC(=O)c3cc4ccccc4o3)c2C(=O)O)cn1` [2-(benzofuran-2-carboxamido)-4-(6-methoxypyridin-3-yl)thiophene-3-carboxylic acid], which IC50 is on record?
Answer: < 10 µM

Question: With `Cc1ccc(-c2csc(NC(=O)c3cc4ccccc4o3)c2C(=O)O)cn1` [2-(benzofuran-2-carboxamido)-4-(6-methylpyridin-3-yl)thiophene-3-carboxylic acid] as the compound, how does the IC50 read?
Answer: < 10 µM

Question: Which IC50 does the source give for `COc1cccc2cc(-c3csc(NC(=O)c4cc5ccccc5o4)c3C(=O)O)[nH]c12` [2-(benzofuran-2-carboxamido)-4-(7-methoxy-1H-indol-2-yl)thiophene-3-carboxylic acid] here?
Answer: < 10 µM

Question: For `Cc1ccc(-c2csc(NC(=O)c3cc4ccccc4o3)c2C(=O)O)c2cccnc12` [2-(benzofuran-2-carboxamido)-4-(8-methylquinolin-5-yl)thiophene-3-carboxylic acid], which IC50 is on record?
Answer: < 10 µM

Question: How did the IC50 turn out when `O=C(Nc1scc(-c2ccc3ccccc3c2)c1C(=O)O)c1cc2ccccc2o1` [2-(benzofuran-2-carboxamido)-4-(naphthalen-2-yl)thiophene-3-carboxylic acid] was run?
Answer: < 10 µM

Question: For `O=C(Nc1scc(-c2ccc3nccnc3c2)c1C(=O)O)c1cc2ccccc2o1` [2-(benzofuran-2-carboxamido)-4-(quinoxalin-6-yl)thiophene-3-carboxylic acid], which IC50 is on record?
Answer: < 10 µM
